# Experimental data as given in US9375434B2, “Antitumor effect potentiator composed of imidazooxazine compound” (Taiho Pharmaceutical Co., Ltd., priority 2012, dated 2016).
# Legend:
# [1] = tested on: Human ovarian cancer cell line (A2780); assay: Potentiation of antitumor effect of carboplatin, A2780 subcutaneous implant (Test Example 3); assay type: in vivo, nude rats; settings: compound-I 16 mg/kg/day p.o. day 1-14
# Description: In the figure, the asterisk represents a result having a statistically significant difference compared with the single-drug administration group. FIG. 1 and Table 10 show the results. […] Carboplatin was prepared by diluting a […] injection (Bristol-Myers Squibb, 50 mg/5 mL) two-fold with physiological saline to enable administration at a carboplatin dose of 50 mg/kg/day. Further, the test liquid of Compound-I was prepared by adjusting its dose to 16 mg/kg/day. […] The single-drug administration group was administered 0.5% HPMC or a physiological saline as a vehicle instead of Compound-I or carboplatin. […] FIG. 5 and Table 12 show the results. […] The effect of the combined administration was also statistically determined in the same manner as in Test Example 1. In the figure and the table, the asterisk represents a result having a statistically significant difference compared with the single-drug administration group.
# [2] = tested on: Human stomach cancer cell line (4-1ST); assay: Potentiation of antitumor effect of TS-1, 4-1ST subcutaneous implant in nude mice (Test Example 8); assay type: in vivo, BALB/cA Jcl-nu/nu mice
# Description: As an index of antitumor effect, the TV at Day 15 was measured for each of the drug administration groups, and the relative tumor volume (RTV) relative to Day 1 and T/C (%) were calculated by the following formulas to evaluate the antitumor effect. […] In the figure, the asterisk represents a result having a statistically significant difference compared with the single-drug administration group.
# FIG. 1 and Table 10 show the results. TV (mm^3)=(length×width^2)/2 RTV=(TV at Day 15)/(TV at Day 1) T/C(%)=(average RTV value of the test liquid administration group)/(average RTV value of the control group)×100
# Human stomach cancer cell line (4-1ST) was subcutaneously implanted into the right flank of 6-week-old male BALB/cA Jcl-nu/nu mice, and was used in the same manner as in Test Example 1.
# TS-1 was prepared by mixing FT (tegafur; Taiho Pharmaceutical Co., Ltd.), CDHP (gimeracil; Taiho Pharmaceutical Co., Ltd.) and Oxo (oteracil potassium; Taiho Pharmaceutical Co., Ltd.) at a molar ratio of 1:0.4:1, adding a 0.5% (w/v) HPMC aqueous solution to the mixture at an FT concentration of 1.66 mg/mL, and subjecting the mixture to a ultrasonic treatment to obtain an even suspension (an administration liquid having a double concentration of the liquid in the group of 8.3 mg/kg/day dose). The suspension was diluted two-fold with a 0.5% (w/v) HPMC aqueous solution to a concentration of 0.83 mg/mL, thereby yielding an administration liquid to be used for the group of 8.3 mg/kg/day dose. Further, the test liquid of Compound-I was prepared by adjusting its dose to 16 and 24 mg/kg/day.
# Compound-I and TS-1 were orally administered once a day for 14 days from Day 1. In the combined administration groups, Compound-I at a dose of 16 and 24 mg/kg/day, and TS-1 at a dose of 8.3 mg/kg/day were administered, and the evaluation was performed in the same manner as in Test Example 1. FIGS. 15A and 15B, and Table 17 show the results.
# In the same manner as in Test Example 7, the effect of the combined administration was also statistically determined. In the figure and the table, the asterisk represents a result having a statistically significant difference compared with the single-drug administration group.
# [3] = tested on: Human stomach cancer cell line (NCI-N87); assay: Potentiation of antitumor effect of paclitaxel, NCI-N87 subcutaneous implant in nude mice (Test Example 2); assay type: in vivo, BALB/cA Jcl-nu/nu mice
# Description: In the figure, the asterisk represents a result having a statistically significant difference compared with the single-drug administration group. FIG. 1 and Table 10 show the results. […] Ltd.) was prepared to enable administration at a paclitaxel dose of 60 mg/kg/day. Further, test liquids for the groups receiving only Compound-I were prepared to enable administration at Compound-I doses of 8 mg/kg/day, 16 mg/kg/day, and 24 mg/kg/day. […] In the groups receiving the two drugs, Compound-I was administered at doses of 8 mg/kg/day, 16 mg/kg/day, and 24 mg/kg/day, and paclitaxel was administered at a dose of 60 mg/kg/day. The evaluation was performed in the same manner as in Test Example 1. The effect of the combined administration was also statistically determined in the same manner as in Test Example 1. In the figure and the table, the asterisk represents a result having a statistically significant difference compared with the single-drug administration group. FIG. 3 and Table 11 show the results.
# [4] = tested on: Human ovarian cancer cell line (A2780); assay: Potentiation of antitumor effect of doxorubicin, A2780 subcutaneous implant in nude mice (Test Example 6); assay type: in vivo, BALB/cA Jcl-nu/nu mice
# Description: In the groups receiving only Compound-I, the test liquid was prepared by diluting Compound-I with 0.5% HPMC to enable administration at a Compound-I dose of 16 mg/kg/day. […] The effect of the combined administration was also statistically determined in the same manner as in Test Example 1.
# [5] = compound-I 16 mg/kg/day p.o. day 1-14
# [6] = compound-I 24 mg/kg/day p.o. day 1-14
# [7] = compound-I 8 mg/kg/day p.o. day 1-14
smiles,measurement,setting,value
"CC1(O)CC(N)(c2ccc(-c3nc4n(c3-c3ccccc3)COc3ccncc3-4)cc2)C1 (stereo not drawn) [compound-I, trans-3-amino-1-methyl-3-(4-(3-phenyl-5H-imidazo[1,2-c]pyrido[3,4-e][1,3]oxazin-2-yl)phenyl)cyclobutanol]",RTV day 15 Mean ± SD,[1],20.86 ± 4.84
same,T/C (%),[1],81%
same,RTV day 15 Mean ± SD,[2]; [5],4.53 ± 0.59
same,T/C (%),[2]; [5],38.1%
same,RTV day 15 Mean ± SD,[2]; [6],3.83 ± 0.48
same,T/C (%),[2]; [6],32.2%
same,RTV day 15 Mean ± SD,[3]; [7],2.02 ± 0.41
same,T/C (%),[3]; [7],59%
same,RTV day 15 Mean ± SD,[3]; [5],1.32 ± 0.38
same,T/C (%),[3]; [5],39%
same,RTV day 15 Mean ± SD,[3]; [6],0.98 ± 0.28
same,T/C (%),[3]; [6],29%
same,T/C (%),[4]; compound-I 16 mg/kg/day day 1-14,80%
same,RTV day 15 Mean ± SD,[4]; [5],22.17 ± 7.20
